Test results taken from patent US20250095772A1, “METHOD FOR IMPROVING THROUGHPUT OF COMPOUND-PROTEIN INTERACTION EXPERIMENTS” (SOUTHERN UNIVERSITY OF SCIENCE AND TECHNOLOGY, priority 2022, published 2025).

Key:
K562 cell lysate [1] = assay: Single temperature point TPP target identification, 15 drugs pooled into 9 mixture systems (Example 1); type: binding; conditions: 15 compounds in 9 mixture systems (each in 3), each drug 40 μM, heated at 52° C. for 3 minutes, LASSO β threshold 0.1, — = no target identified
Description: In step S01: Fifteen drugs to be tested (i.e., the compounds to be tested) were given: Palbociclib, Panobinostat, Raltitrexed, Methotrexate, Vemurafenib, Fimepinostat, SCIO-469, SL-327, 5-Fluorouracil, Olaparib, Belumosudil, OTS964, Parthenolide, CCT137690, […], which are sequentially numbered as compound to be tested 1, compound to be tested 2, compound to be tested 3, . . . and compound to be tested 15. It is assumed here that the above fifteen compounds to be tested are mixed into nine mixture systems: mixture system 1, mixture system 2, mixture system 3, . . . and mixture system 9, and each compound to be tested was included in three different mixture systems, that is, m=9, n=15, a=3. The nine mixture systems are mapped into a 9x15 initial permutation matrix A of the compounds to be tested, and the initial permutation matrix A is randomly initialized so that the numerical values in the matrix A are random floating-point numbers between 0 and 1.
The initial permutation matrix A of the compounds to be tested was iteratively optimized through a genetic algorithm to minimize the value of the objective function L; the permutation matrix A is subjected to the binary conversion in step S02 when the value of the objective function L is the minimum to obtain the optimized permutation matrix S (as shown in FIG. 3), the optimized permutation matrix S is the final permutation matrix. […] In FIGS. 2 and 3, the black grid represents the numerical value 1, and the white grid represents the numerical value 0. During the iteration process, the value of the objective function L decreases to a constant value as the number of iterations increases, as shown in FIG. 4. The fifteen compounds to be tested were mixed according to the finally-obtained 9×15 optimized permutation matrix shown in FIG. 3, and nine mixture systems were obtained.
(§1) In step S04: DMSO as a solvent was added to each mixture system in step S03 to enable a concentration of each drug to reach 40 μM, and then the single temperature point TPP method is applied to measure the interaction between each mixture system and the protein. The specific experimental steps are that: equal amounts of K562 cell lysate were mixed with a drug mixture system, incubated at room temperature for 10 minutes, then heated at 52° C. for 3 minutes, and then quickly cooled to 4° C. on a PCR machine. The samples were centrifuged at 21,000 rcf for 20 minutes at 4° C., and the supernatant was collected. According to the mass spectrometry-based proteomics quantification method, each sample was enzymatically digested and TMT labeled, and then the LC-MS mass spectrometry was used for measurement to obtain the content of protein. Based on the principle of the TPP method, the thermal stability of the protein can be improved through a combination with compounds. Therefore, if a protein can interact with the mixed system, then the content of protein measured by mass spectrometry will be higher, and vice versa.
(§2) In step S05: Nine measured values Yi obtained from the interaction between the nine mixture systems and the target protein are marked as response vectors Y; the response vectors Y were normalized so that the numerical values of the response vectors are between 0 and 1. The response vector Y and the permutation matrix S meet a relational expression of:
Where, Yi represents a response value of the ability of the mixture system identified as i among the nine mixture systems to interact with the target protein, and βj is a contribution of the compound to be tested identified as j in the mixture system identified as i to the response value of the mixture system identified as i, βj is a coefficient vector with a length n, and R is a residual vector with a length […].
the LASSO regression method is applied to obtain an optimal solution of β based on the following expression: […]

K562 cell lysate [2] = assay: Single temperature point TPP target identification, 25 drugs pooled into 14 mixture systems (Example 2); type: binding; conditions: 25 compounds in 14 mixture systems (each in 4), remaining steps as Example 1 (40 μM, K562 cell lysate, 52° C., LASSO β threshold 0.1); — = no target identified
Method: as §1, with “Based on the principle of the TPP method, the thermal stability of the protein can be improved through a combination with compounds.” left out
as §2
Where, λ is a penalty term, which is used to adjust a compression degree of β, in this embodiment, the value of λ is 0.1 and the threshold is 0.1.
It is assumed that the above twenty-five compounds to be tested are mixed into fourteen mixture systems: mixture system 1, mixture system 2, mixture system 3, . . . and mixture system 14. Each compound to be tested was included in four different mixture systems. That is, m=14, n=25, a=4. […] In FIG. 5, the black grid represents the numerical value of 1, and the white grid represents the numerical value of 0. […] The twenty-five compounds to be tested were mixed according to the finally obtained 14×25 optimized permutation matrix S shown in FIG. 5, to obtain fourteen mixture systems.

| Compound | Successfully Identified Target(s) (K562 cell lysate [1]) | Successfully Identified Target(s) (K562 cell lysate [2]) |
| --- | --- | --- |
| Cc1cc(CN2CCN(c3c(Br)cnc4nc(-c5ccc(N6CCN(C)CC6)cc5)[nH]c34)CC2)no1 [CCT137690] | AURKA | – |
| COC(=O)N[C@@H](C)CNc1nccc(-c2cn(C(C)C)nc2-c2cc(Cl)cc(NS(C)(=O)=O)c2F)n1 [Encorafenib] | – | BRAF |
| COc1ccc(-c2nc(N3CCOCC3)c3sc(CN(C)c4ncc(C(=O)NO)cn4)cc3n2)cn1 [Fimepinostat] | HDAC1 | HDAC1 |
| CN(Cc1cnc2nc(N)nc(N)c2n1)c1ccc(C(=O)N[C@@H](CCC(=O)O)C(=O)O)cc1 [Methotrexate] | DHFR | DHFR |
| O=C(c1cc(Cc2n[nH]c(=O)c3ccccc23)ccc1F)N1CCN(C(=O)C2CC2)CC1 [Olaparib] | PARP1 | PARP1 |
| CC(C)(C)Cn1c(N)nc2ccc(-c3[nH]c(C(C)(C)C)nc3-c3ccc(F)cc3)nc21 [Ralimetinib] | MAPK14 | MAPK14 |
| Cc1nc2ccc(CN(C)c3ccc(C(=O)N[C@@H](CCC(=O)O)C(=O)O)s3)cc2c(=O)[nH]1 [Raltitrexed] | TYMS | TYMS |
| C[C@@H]1CN(Cc2ccc(F)cc2)[C@@H](C)CN1C(=O)c1cc2c(C(=O)C(=O)N(C)C)cn(C)c2cc1Cl [SCIO-469] | MAPK14 | MAPK14 |
